Reference: ChEMBL document CHEMBL5247623, “The SAR and action mechanisms of autophagy inhibitors that eliminate drug resistance” (Eur J Med Chem, 2022)

Experiments:
[1] = biological target: Phosphatidylinositol 3-kinase catalytic subunit type 3 (Homo sapiens, UniProt Q8NEB9); experiment: Inhibition of VPS34 (unknown origin)
[2] = Inhibition of starvation induced autophagy in human MCF7 cells expressing eGFP-LC3; format: functional, cell-based
[3] = biological target: T1, Serine/threonine-protein kinase ULK2 (Homo sapiens, UniProt Q8IYT8); experiment: Inhibition of ULK2 (unknown origin)
T1 sequence (Q8IYT8 whole entry): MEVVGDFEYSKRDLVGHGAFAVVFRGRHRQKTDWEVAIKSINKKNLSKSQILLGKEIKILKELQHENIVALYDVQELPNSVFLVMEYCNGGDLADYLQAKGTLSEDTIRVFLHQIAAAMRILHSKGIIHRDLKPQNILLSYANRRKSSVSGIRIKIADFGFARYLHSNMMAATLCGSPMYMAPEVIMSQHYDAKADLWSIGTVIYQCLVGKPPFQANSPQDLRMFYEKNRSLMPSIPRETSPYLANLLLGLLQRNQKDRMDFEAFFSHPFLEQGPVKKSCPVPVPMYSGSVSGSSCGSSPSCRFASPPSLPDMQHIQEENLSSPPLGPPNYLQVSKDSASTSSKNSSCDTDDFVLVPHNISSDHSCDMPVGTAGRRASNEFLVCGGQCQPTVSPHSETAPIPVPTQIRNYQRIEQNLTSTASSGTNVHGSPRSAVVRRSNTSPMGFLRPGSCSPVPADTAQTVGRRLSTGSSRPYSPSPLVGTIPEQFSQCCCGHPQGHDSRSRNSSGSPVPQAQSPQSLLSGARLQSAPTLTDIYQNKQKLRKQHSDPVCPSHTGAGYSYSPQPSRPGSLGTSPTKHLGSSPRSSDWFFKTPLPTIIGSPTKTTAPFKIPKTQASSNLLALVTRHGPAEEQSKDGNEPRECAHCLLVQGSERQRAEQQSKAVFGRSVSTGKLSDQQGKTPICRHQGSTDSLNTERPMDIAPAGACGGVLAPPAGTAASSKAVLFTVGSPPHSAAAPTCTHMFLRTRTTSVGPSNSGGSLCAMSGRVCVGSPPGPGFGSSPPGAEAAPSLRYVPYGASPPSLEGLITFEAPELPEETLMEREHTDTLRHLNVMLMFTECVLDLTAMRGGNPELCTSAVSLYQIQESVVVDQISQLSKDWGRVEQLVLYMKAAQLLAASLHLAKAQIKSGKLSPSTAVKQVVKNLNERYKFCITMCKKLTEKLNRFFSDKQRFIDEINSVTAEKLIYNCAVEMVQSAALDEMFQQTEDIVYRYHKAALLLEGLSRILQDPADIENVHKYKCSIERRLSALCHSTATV

[4] = biological target: T2, Serine/threonine-protein kinase ULK1 (Homo sapiens, UniProt O75385); experiment: Inhibition of ULK1 (unknown origin)
T2 sequence (O75385 whole entry): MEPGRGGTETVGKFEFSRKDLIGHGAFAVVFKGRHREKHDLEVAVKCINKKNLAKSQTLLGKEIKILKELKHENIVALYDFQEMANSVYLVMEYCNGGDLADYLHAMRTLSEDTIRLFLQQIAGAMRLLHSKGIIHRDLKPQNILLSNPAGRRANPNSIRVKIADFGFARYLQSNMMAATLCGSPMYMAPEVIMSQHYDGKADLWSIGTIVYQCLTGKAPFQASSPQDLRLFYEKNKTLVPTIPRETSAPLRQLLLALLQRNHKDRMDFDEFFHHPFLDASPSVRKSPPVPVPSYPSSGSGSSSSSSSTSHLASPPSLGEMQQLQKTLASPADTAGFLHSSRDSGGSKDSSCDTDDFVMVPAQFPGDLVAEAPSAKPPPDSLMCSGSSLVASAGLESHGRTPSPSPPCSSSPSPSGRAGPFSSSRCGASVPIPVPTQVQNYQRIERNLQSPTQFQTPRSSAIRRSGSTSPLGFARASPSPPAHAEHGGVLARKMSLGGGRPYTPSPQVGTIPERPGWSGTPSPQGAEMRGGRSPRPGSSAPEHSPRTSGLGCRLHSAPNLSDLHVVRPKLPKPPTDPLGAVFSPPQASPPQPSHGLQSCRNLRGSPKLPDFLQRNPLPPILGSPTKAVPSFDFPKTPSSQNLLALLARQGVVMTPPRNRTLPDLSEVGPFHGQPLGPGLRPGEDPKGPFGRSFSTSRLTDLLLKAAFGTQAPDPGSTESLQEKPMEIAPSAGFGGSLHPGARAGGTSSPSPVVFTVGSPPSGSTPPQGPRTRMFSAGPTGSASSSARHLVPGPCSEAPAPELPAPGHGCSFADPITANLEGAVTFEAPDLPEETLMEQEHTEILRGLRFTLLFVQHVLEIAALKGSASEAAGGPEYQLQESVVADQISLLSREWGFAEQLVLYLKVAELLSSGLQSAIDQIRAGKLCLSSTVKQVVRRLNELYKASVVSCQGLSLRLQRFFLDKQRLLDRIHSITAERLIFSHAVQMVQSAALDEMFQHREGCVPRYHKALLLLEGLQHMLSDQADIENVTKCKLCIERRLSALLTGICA

[5] = Inhibition of rapamycin induced autophagy in human MCF7 cells expressing eGFP-LC3; format: functional, cell-based
U2OS [6] = experiment: Inhibition of autophagy in human U2OS cells expressing tfLC3 incubated for 3 hrs by fluorescent microscopy; format: functional, cell-based
U2OS [7] = experiment: Cytotoxicity against human U2OS cells; format: functional, cell-based

Sequence of Phosphatidylinositol 3-kinase catalytic subunit type 3 (Q8NEB9 whole entry): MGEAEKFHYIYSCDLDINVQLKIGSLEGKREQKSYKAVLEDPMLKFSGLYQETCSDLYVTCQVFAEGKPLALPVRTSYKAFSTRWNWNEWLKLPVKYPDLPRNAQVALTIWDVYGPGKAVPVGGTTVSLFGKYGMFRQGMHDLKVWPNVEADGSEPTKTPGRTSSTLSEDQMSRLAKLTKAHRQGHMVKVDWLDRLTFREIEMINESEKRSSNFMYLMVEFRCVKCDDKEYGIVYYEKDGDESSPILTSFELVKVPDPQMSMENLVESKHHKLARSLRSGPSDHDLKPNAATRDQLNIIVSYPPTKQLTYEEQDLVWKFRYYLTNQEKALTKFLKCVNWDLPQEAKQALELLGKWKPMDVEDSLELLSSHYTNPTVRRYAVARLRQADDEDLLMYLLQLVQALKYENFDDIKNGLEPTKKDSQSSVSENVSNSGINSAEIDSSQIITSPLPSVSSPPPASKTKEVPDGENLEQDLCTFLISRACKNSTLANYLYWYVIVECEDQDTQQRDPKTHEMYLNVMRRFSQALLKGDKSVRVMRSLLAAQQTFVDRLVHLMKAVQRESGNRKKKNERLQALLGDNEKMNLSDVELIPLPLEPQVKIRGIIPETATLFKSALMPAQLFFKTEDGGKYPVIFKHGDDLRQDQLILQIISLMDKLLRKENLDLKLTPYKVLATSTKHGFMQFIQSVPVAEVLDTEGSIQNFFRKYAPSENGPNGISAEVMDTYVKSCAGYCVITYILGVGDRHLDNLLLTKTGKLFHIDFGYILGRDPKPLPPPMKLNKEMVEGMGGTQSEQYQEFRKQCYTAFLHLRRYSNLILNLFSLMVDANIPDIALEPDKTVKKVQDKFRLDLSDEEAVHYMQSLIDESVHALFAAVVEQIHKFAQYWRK

Row | IC50 [1] [nM] | IC50 [2] [nM] | Compound | other results
1 | 77 |  | COC[C@H]1OC(=O)c2coc3c2[C@@]1(C)C1=C(C3=O)[C@@H]2C[C@@H](Br)C(OC(C)=O)[C@@]2(C)C[C@H]1OC(C)=O (some centres undefined) | 
2 |  | 140 | O=C(C1CC1)N1CCc2cc(Br)c(S(=O)(=O)Nc3ccc(Cl)c(C(F)(F)F)c3)cc21 | 
3 | 4600 |  | COC(=O)c1coc2c(O)c3c(c(C)c12)C=C[C@]1(C)C(=O)CC[C@@H]31 | 
4 | 146 | 390 | Cc1cc(Nc2cc(N3CCN(C)CC3)nc(Oc3ccc([N+](=O)[O-])cc3)n2)n[nH]1 | 
5 | 59 |  | COC[C@H]1OC(=O)c2coc3c2[C@@]1(C)C1=C(C3=O)[C@@H]2CCC(OC(C)=O)[C@@]2(C)C[C@H]1OC(C)=O (some centres undefined) | 
6 |  | 560 | O=C(C1CC1)N1CCc2cc(Br)c(S(=O)(=O)Nc3cccc(C(F)(F)F)c3)cc21 | 
7 |  | 4500 | O=C(CC1CC1)N1CCc2cc(Br)c(S(=O)(=O)Nc3ccc(Cl)c(C(F)(F)F)c3)cc21 | 
8 |  |  | CC(C)[C@H](NC(=O)c1cc(C2C=C3N=C(c4ccc(OCCN5CCCCC5)cc4)C=CN3N2)cs1)C(F)(F)F (some centres undefined) | IC50 [3]: 2.6 nM; IC50 [4]: 1.6 nM
9 | 310 | 340 | Cc1cc(Nc2cc(C(F)(F)F)nc(Nc3ccc([N+](=O)[O-])cc3)n2)n[nH]1 | IC50 [5]: 440 nM
10 |  |  | CN1CCN(CCNc2c3ccccc3nc3cc(Cl)ccc23)CC1 | EC50 (U2OS [6]): 5000 nM; IC50 (U2OS [7]): 27000 nM
11 | 309 |  | COC[C@H]1OC(=O)c2coc3c2[C@@]1(C)C1=C(C3=O)[C@@H]2C[C@@H](OC(C)=O)C(OC(C)=O)[C@@]2(C)C[C@H]1OC(C)=O (some centres undefined) | 
12 | 627 | 1400 | CC(C)(C)c1cc(Nc2cc(Cl)nc(Oc3ccc([N+](=O)[O-])cc3)n2)n[nH]1 | IC50 [5]: 2000 nM
13 | 49 | 130 | N#Cc1ccc(Oc2nc(Cl)cc(Nc3cc[nH]n3)n2)cc1 | IC50 [5]: 90 nM
14 | 80 |  | CCN(/C=C1\C(=O)O[C@H](COC)[C@@]2(C)C1=C(O)C(=O)C1=C2[C@H](OC(C)=O)C[C@]2(C)C(=O)CC[C@@H]12)CC | 
15 |  | 3300 | O=C(C1CCC1)N1CCc2cc(Br)c(S(=O)(=O)Nc3ccc(Cl)c(C(F)(F)F)c3)cc21 | 
16 | 52 |  | CCCCN/C=C1\C(=O)O[C@H](COC)[C@@]2(C)C1=C(O)C(=O)C1=C2[C@H](OC(C)=O)C[C@]2(C)C(=O)CC[C@@H]12 | 
17 | 285 | 450 | Cc1cc(Nc2cc(N(C)C)nc(Oc3ccc([N+](=O)[O-])cc3)n2)n[nH]1 | IC50 [5]: 280 nM
18 | 214 | 200 | Cc1cc(Nc2cc(Cl)nc(OCc3ccc([N+](=O)[O-])cc3)n2)n[nH]1 | IC50 [5]: 470 nM
19 | 36 | 130 | O=[N+]([O-])c1ccc(Oc2nc(Cl)cc(Nc3cc(C4CC4)[nH]n3)n2)cc1 | IC50 [5]: 100 nM
20 |  | 3000 | CC(C)C(=O)N1CCc2cc(Br)c(S(=O)(=O)Nc3ccc(Cl)c(C(F)(F)F)c3)cc21 | 
21 |  | 90 | Cc1cc(Nc2cc(Cl)nc(Oc3ccc([N+](=O)[O-])cc3)n2)n[nH]1 | IC50 [5]: 40 nM
22 |  | 2400 | O=C(C1CC1)N1CCc2cc(Br)c(S(=O)(=O)Nc3cc(Cl)ccc3C(F)(F)F)cc21 | 
23 | ≥ 500 |  | CCCN/C=C1\C(=O)O[C@H](COC)[C@@]2(C)C1=C(O)C(=O)C1=C2[C@H](OC(C)=O)C[C@]2(C)C(=O)CC[C@@H]12 | 

Row | IC50 [1] [nM] | IC50 [2] [nM] | Compound | other results
24 | ≥ 500 |  | CN/C=C1\C(=O)O[C@H](COC)[C@@]2(C)C1=C(O)C(=O)C1=C2[C@H](OC(C)=O)C[C@]2(C)C(=O)CC[C@@H]12 | 
25 | ≥ 500 |  | COC[C@H]1OC(=O)c2c(C)oc3c2[C@@]1(C)C1=C(C3=O)[C@@H]2CCC(=O)[C@@]2(C)C[C@H]1OC(C)=O | 
26 |  | 1100 | O=C(C1CC1)N1CCc2cc(Br)c(S(=O)(=O)Nc3cc(C(F)(F)F)ccc3Cl)cc21 | 
27 |  | 810 | Cc1ccc(NS(=O)(=O)c2cc3c(cc2Br)CCN3C(=O)C2CC2)cc1C(F)(F)F | 
28 | 153 |  | COC[C@H]1OC(=O)c2coc3c2[C@@]1(C)C1=C(C3=O)[C@@H]2C[C@@H](O)C(OC(C)=O)[C@@]2(C)C[C@H]1OC(C)=O (some centres undefined) | 
29 |  |  | COc1ccc2nc3cc(Cl)ccc3c(NCCCCN3CCN(C)CC3)c2c1 | EC50 (U2OS [6]): 100 nM; IC50 (U2OS [7]): 700 nM
30 | ≥ 500 |  | CCN/C=C1\C(=O)O[C@H](COC)[C@@]2(C)C1=C(O)C(=O)C1=C2[C@H](OC(C)=O)C[C@]2(C)C(=O)CC[C@@H]12 | 
31 |  |  | O=C(N[C@@H](C1CC1)C(F)(F)F)c1cc(C2C=C3N=C(c4ccc(F)cc4)C=CN3N2)cs1 (some centres undefined) | IC50 [3]: 30 nM; IC50 [4]: 8.3 nM
32 | ≥ 500 |  | COC[C@H]1OC(=O)/C(=C\N)C2=C(O)C(=O)C3=C([C@H](OC(C)=O)C[C@]4(C)C(=O)CC[C@@H]34)[C@]21C | 
33 | ≥ 500 |  | COC[C@H]1OC(=O)C23CC2COC2=C3[C@@]1(C)C1=C(C2=O)[C@@H]2CCC(=O)[C@@]2(C)C[C@H]1OC(C)=O (some centres undefined) | 
34 | 23 | 70 | Cc1cc(Nc2cc(C)[nH]n2)nc(Oc2ccc([N+](=O)[O-])cc2)n1 | IC50 [5]: 40 nM
35 | 110 | 380 | Clc1cc(Nc2cc[nH]n2)nc(OCc2ccncc2)n1 | IC50 [5]: 280 nM
36 | 271 |  | COC[C@H]1OC(=O)C2=CCOC3=C2[C@@]1(C)C1=C(C3=O)[C@@H]2CCC(=O)[C@@]2(C)C[C@H]1OC(C)=O | 
37 |  | 1400 | O=C(C1CC1)N1CCc2cc(Br)c(S(=O)(=O)Nc3cc(C(F)(F)F)ccc3F)cc21 | 
38 |  | 6600 | O=C(CC1CC1)N1CCc2ccc(S(=O)(=O)Nc3ccc(Cl)c(C(F)(F)F)c3)cc21 | 
39 | 121 | 230 | Cc1cc(Nc2cc(N3CCOCC3)nc(Oc3ccc([N+](=O)[O-])cc3)n2)n[nH]1 | IC50 [5]: 160 nM
40 |  |  | CCN(CC)CCCC(C)Nc1c2ccc(Cl)cc2nc2ccc(OC)cc12 (centres undefined) [QUINACRINE] | EC50 (U2OS [6]): 250 nM; IC50 (U2OS [7]): 2500 nM
41 | 61 | 450 | NS(=O)(=O)c1ccc(Oc2nc(Cl)cc(Nc3cc[nH]n3)n2)cc1 | IC50 [5]: 420 nM
42 |  | 2130 | O=[N+]([O-])c1ccc(Oc2nc(Cl)cc(Nc3ccccc3)n2)cc1 | 
43 | 78 | 190 | Cc1cc(Nc2cc(C(F)(F)F)nc(Oc3ccc([N+](=O)[O-])cc3)n2)n[nH]1 | IC50 [5]: 70 nM
44 | 17 |  | COC[C@H]1OC(=O)c2coc3c2[C@@]1(C)C1=C(C3=O)[C@@H]2CCC(=O)[C@@]2(C)CC1 | 
45 | 20 | 170 | Cc1cc(Nc2cc(Cl)nc(Oc3ccc([N+](=O)[O-])cc3)n2)no1 | IC50 [5]: 120 nM

Row | Compound | IC50 [1] [nM] | IC50 [2] [nM] | other results
46 | COC[C@H]1OC(=O)c2coc3c2[C@@]1(C)C1=C(C3=O)[C@@H]2CC[C@H](O)[C@@]2(C)C[C@H]1OC(C)=O | 0.5 |  | 
47 | COC[C@H]1OC(=O)c2coc3c2[C@@]1(C)C1=CC[C@]2(C)C(=O)CC[C@H]2C1C3=O (some centres undefined) | 54 |  | 
48 | COC[C@H]1OC(=O)c2coc3c2[C@@]1(C)C1=C(C3=O)[C@@H]2CCC(=O)[C@@]2(C)C[C@H]1OC(C)=O [WORTMANNIN] | 4.2 |  | 
